Test results taken from patent EP4467141A1, “PYRAZOLO-QUINOLINES AS SELECTIVE INHIBITORS OF GENOTOXIC STRESS-INDUCED IKK/NF- KB PATHWAYS FOR CANCER THERAPY” (Max-Delbrück-Centrum für Molekulare Medizin in der …, priority 2023, dated 2024).

Tests used:
Experiment in all cases: Kinase panel study
Assay type in all cases: biochemical
Details in all cases: read-out: Percentage of inhibition; for inhibition at 1 µM: 1000nM; for inhibition at 10 µM: 10000nM
AURKA (Aurora A) = target: T1, AURKA (Aurora A) (Homo sapiens, UniProt O14965)
T1 construct: purchased Thermo Fisher Scientific
T1 sequence (O14965 1-403): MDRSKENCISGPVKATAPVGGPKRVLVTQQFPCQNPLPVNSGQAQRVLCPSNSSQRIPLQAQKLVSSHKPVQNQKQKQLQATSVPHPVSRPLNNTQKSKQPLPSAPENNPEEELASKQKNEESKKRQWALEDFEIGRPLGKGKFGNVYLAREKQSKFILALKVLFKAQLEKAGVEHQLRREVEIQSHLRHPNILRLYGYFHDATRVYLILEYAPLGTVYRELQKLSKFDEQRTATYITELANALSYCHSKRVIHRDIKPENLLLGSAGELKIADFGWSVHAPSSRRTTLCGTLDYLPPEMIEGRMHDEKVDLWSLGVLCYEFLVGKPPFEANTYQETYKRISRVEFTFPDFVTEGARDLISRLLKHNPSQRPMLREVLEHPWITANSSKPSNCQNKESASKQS
Method in brief: (§1)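 Compounds were tested in vitro against the kinase panel by a service lab. Assays followed standard ZLyte or Adapta protocols. Activity was recorded as % inhibition at 10 µM or 1 µM, with IC50 values where determined.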

KIT V560G = target: T2, KIT V560G (Homo sapiens, UniProt P10721, V560G)
T2 construct: purchased Thermo Fisher Scientific
Method in brief: as §1

PRKCG (PKC gamma) = target: T3, PRKCG (PKC gamma) (Homo sapiens, UniProt P05129)
T3 construct: purchased Thermo Fisher Scientific
Method in brief: as §1

DYRK3 = target: T4, DYRK3 (Homo sapiens, UniProt O43781)
T4 construct: purchased Thermo Fisher Scientific
T4 sequence (O43781 1-588): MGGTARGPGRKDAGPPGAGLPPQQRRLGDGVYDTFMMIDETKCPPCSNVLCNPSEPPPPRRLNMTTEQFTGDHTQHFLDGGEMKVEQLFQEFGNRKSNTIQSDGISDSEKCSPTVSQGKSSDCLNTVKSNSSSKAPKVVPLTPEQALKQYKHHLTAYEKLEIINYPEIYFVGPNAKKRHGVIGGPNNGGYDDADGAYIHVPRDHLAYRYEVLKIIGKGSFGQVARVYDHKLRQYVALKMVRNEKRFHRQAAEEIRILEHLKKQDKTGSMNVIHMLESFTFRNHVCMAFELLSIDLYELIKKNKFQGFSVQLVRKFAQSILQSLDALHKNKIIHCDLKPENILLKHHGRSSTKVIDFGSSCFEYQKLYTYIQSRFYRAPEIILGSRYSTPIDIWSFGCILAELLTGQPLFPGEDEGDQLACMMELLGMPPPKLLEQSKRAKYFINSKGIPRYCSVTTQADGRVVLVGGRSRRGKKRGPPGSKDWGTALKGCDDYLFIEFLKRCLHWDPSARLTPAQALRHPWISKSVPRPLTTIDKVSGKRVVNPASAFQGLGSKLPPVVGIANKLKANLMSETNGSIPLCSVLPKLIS
Method in brief: as §1

CAMK2A (CaMKII alpha) = target: T5, CAMK2A (CaMKII alpha) (Homo sapiens, UniProt Q9UQM7)
T5 construct: purchased Thermo Fisher Scientific
Method in brief: as §1

PRKCA (PKC alpha) = target: T6, PRKCA (PKC alpha) (Homo sapiens, UniProt P17252)
T6 construct: purchased Thermo Fisher Scientific
Method in brief: as §1

KIT T670I = target: T7, KIT T670I (Homo sapiens, UniProt P10721, T670I)
T7 construct: purchased Thermo Fisher Scientific
Method in brief: as §1

KDR (VEGFR2) = target: T8, KDR (VEGFR2) (Homo sapiens, UniProt P35968)
T8 construct: purchased Thermo Fisher Scientific
T8 sequence (P35968 20-1356): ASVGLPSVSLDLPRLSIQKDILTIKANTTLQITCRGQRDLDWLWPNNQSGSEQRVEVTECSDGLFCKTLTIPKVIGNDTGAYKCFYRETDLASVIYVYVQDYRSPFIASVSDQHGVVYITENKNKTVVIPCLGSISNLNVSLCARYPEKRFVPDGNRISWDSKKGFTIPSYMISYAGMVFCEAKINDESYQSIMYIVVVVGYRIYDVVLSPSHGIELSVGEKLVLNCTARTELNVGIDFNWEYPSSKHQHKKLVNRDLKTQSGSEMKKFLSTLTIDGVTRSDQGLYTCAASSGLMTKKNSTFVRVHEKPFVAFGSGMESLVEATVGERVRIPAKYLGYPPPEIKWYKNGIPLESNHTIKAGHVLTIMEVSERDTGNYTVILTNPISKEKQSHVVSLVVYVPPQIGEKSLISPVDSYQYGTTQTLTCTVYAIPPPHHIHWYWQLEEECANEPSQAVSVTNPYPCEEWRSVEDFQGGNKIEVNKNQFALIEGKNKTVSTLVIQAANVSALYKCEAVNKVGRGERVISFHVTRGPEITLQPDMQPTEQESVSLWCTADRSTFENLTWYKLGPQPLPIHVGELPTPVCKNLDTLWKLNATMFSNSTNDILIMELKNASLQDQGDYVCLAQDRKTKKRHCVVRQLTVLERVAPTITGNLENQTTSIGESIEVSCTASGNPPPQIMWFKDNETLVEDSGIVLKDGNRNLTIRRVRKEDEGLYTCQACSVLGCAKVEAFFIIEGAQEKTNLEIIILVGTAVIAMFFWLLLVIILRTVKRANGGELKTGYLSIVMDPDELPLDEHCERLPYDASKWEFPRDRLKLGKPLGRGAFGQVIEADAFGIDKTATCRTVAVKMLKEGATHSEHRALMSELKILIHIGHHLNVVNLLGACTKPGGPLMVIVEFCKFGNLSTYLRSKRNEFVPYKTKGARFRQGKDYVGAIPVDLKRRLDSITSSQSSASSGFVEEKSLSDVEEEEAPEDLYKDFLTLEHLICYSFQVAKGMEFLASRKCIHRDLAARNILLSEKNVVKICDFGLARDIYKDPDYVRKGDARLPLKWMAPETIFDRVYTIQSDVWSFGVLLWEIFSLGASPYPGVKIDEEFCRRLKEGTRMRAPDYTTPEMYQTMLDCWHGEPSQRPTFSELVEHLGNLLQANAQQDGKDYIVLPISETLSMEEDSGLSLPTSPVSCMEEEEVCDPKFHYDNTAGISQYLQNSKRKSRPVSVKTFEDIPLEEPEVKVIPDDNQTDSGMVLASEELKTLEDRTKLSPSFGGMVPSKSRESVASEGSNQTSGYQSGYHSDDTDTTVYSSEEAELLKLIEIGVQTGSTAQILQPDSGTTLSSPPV
Method in brief: as §1

PAK6 = target: T9, PAK6 (Homo sapiens, UniProt Q9NQU5)
T9 construct: purchased Thermo Fisher Scientific
T9 sequence (Q9NQU5 whole entry): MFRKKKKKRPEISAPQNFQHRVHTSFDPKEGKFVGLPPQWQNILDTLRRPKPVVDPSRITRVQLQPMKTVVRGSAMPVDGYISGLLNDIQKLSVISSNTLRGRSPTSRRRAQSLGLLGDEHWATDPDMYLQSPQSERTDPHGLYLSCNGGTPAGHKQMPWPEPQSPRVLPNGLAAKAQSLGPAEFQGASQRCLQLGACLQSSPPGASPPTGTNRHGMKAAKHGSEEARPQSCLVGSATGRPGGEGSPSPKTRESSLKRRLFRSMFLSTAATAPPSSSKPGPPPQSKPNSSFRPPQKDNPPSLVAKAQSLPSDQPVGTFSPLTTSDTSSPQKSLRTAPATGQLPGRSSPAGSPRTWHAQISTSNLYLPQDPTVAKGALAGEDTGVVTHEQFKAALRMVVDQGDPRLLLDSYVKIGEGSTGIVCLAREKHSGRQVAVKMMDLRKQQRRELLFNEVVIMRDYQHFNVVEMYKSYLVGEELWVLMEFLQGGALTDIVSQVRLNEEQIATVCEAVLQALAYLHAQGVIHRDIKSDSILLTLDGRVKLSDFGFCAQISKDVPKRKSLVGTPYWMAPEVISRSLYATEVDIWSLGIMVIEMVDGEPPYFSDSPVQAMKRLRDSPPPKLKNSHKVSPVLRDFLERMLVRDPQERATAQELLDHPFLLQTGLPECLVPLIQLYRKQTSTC
Method in brief: as §1

MAPKAPK2 = target: T10, MAPKAPK2 (Homo sapiens, UniProt P49137)
T10 construct: purchased Thermo Fisher Scientific
Method in brief: as §1

PIK3C2B (PI3K-C2 beta) = target: T11, PIK3C2B (PI3K-C2 beta) (Homo sapiens, UniProt O00750)
T11 construct: purchased Thermo Fisher Scientific
T11 sequence (O00750 whole entry): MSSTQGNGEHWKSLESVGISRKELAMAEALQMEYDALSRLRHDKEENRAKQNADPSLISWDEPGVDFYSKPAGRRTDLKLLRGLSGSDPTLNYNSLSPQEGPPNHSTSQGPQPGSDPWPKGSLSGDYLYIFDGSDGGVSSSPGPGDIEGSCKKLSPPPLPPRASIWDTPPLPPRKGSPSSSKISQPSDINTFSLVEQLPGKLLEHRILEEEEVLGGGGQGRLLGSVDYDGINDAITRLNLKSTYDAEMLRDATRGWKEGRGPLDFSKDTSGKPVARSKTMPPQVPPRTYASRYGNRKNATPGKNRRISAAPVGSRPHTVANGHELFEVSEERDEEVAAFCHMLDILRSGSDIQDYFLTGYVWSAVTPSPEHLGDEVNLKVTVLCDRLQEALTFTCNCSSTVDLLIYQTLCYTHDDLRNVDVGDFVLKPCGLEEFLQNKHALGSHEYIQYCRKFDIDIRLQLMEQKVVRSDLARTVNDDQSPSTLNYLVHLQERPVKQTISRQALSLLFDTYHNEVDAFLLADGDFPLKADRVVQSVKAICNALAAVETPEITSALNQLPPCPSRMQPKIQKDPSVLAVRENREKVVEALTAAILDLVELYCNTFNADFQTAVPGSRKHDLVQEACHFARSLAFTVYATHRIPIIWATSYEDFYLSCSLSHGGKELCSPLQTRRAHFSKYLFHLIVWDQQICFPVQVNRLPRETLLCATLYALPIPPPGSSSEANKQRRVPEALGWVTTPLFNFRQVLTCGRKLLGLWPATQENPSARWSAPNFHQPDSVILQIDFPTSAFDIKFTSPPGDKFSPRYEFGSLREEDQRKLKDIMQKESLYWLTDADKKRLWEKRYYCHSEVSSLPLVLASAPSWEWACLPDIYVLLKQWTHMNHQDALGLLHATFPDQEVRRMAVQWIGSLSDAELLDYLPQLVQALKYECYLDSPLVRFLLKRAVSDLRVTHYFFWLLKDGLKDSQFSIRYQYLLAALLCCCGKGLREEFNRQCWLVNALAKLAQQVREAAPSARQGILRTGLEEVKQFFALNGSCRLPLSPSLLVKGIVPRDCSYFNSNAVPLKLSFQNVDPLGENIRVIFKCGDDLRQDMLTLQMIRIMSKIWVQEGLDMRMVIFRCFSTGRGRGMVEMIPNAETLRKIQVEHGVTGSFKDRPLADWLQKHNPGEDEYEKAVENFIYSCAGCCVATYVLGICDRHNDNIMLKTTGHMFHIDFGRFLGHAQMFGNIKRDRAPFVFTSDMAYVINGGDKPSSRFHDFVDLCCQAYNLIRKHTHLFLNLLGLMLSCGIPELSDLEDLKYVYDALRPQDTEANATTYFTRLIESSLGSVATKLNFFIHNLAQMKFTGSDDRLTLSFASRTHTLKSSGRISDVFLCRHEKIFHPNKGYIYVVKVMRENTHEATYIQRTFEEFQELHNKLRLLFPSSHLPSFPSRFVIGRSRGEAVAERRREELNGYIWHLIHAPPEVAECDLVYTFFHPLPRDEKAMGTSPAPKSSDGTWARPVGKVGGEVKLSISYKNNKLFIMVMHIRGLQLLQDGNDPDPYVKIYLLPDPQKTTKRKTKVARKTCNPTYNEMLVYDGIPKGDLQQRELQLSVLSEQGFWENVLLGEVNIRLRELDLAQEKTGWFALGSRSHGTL
Method in brief: as §1

EGFR (ErbB1) T790M = target: T12, EGFR (ErbB1) T790M (Homo sapiens, UniProt P00533, T790M)
T12 construct: purchased Thermo Fisher Scientific
Method in brief: as §1

Structure (SMILES) | inhibition at 1 µM (AURKA (Aurora A)) [%] | inhibition at 10 µM (AURKA (Aurora A)) [%] | inhibition at 1 µM (KIT V560G) [%] | inhibition at 10 µM (KIT V560G) [%] | inhibition at 1 µM (PRKCG (PKC gamma)) [%] | inhibition at 10 µM (PRKCG (PKC gamma)) [%] | inhibition at 1 µM (DYRK3) [%] | inhibition at 10 µM (DYRK3) [%] | inhibition at 1 µM (CAMK2A (CaMKII alpha)) [%] | inhibition at 10 µM (CAMK2A (CaMKII alpha)) [%] | inhibition at 1 µM (PRKCA (PKC alpha)) [%] | inhibition at 10 µM (PRKCA (PKC alpha)) [%] | inhibition at 1 µM (KIT T670I) [%] | inhibition at 10 µM (KIT T670I) [%] | inhibition at 1 µM (KDR (VEGFR2)) [%] | inhibition at 10 µM (KDR (VEGFR2)) [%] | inhibition at 1 µM (PAK6) [%] | inhibition at 10 µM (PAK6) [%] | inhibition at 1 µM (MAPKAPK2) [%] | inhibition at 10 µM (MAPKAPK2) [%] | also measured
COc1ccc2c(c1OC)c(=O)n1c3ccc(O)cc3c3ccnc2c31 [MW01, 5-Hydroxy-10,11-dimethoxy-9H-benzo[c]indolo[3,2,1-ij][1,5]naphthyridin-9-one] | 8 | 18 | 12 | 7 | 13 | 16 | 17 | 43 | 12 | 39 | 11 | 18 | 1 | 13 | 24 | 54 | 5 | -10 | 3 | 3 | inhibition at 1 µM (PIK3C2B (PI3K-C2 beta)): 53%; inhibition at 10 µM (PIK3C2B (PI3K-C2 beta)): 68%; inhibition at 1 µM (EGFR (ErbB1) T790M): 8%; inhibition at 10 µM (EGFR (ErbB1) T790M): 19%
COc1ccc2cc3c(N)nn(C(=O)c4cccc(N(C)C)c4)c3nc2c1 [MW05, (3-Amino-7-methoxypyrazolo[3,4-b]quinolin-1-yl)-[3-(dimethylamino)phenyl]methanone] | 7 | -5 | 11 | 2 | 11 | -3 | 5 | 7 | 9 | 16 | 4 | -1 | -1 | -13 | 7 | -15 | 11 | 3 | 4 | -6 | inhibition at 1 µM (PIK3C2B (PI3K-C2 beta)): 2%; inhibition at 10 µM (PIK3C2B (PI3K-C2 beta)): 12%; inhibition at 1 µM (EGFR (ErbB1) T790M): 4%; inhibition at 10 µM (EGFR (ErbB1) T790M): 0%
